Test results reported in PMC9312958, “A Novel and Selective Dopamine Transporter Inhibitor, (S)-MK-26, Promotes Hippocampal Synaptic Plasticity and Restores Effort-Related Motivational Dysfunctions” (Biomolecules, 2022).
Several values for one entry are separate records, joined by “and”; a condition that tells them apart may be missing. Identical values can stand only once. Like-named read-outs stand apart in the source and are kept apart here.

What was measured:
[1] = Plasma and brain compound levels and pharmacokinetic parameters after i.p. administration; format: in vivo, male Sprague–Dawley rats; settings: rat, 10 mg/kg i.p.; for concentration at 10 h: read-out: Clast
Method: The bioavailability of (S)-MK-26 after intraperitoneal (i.p.) administration in male Sprague–Dawley rats (260–351 g) was outsourced to Evotec (Toulouse CEDEX, France, Study Number VDD10431). (S)-MK-26 at dose of 10 mg/kg of body weight was i.p. administered and blood samples and brains were collected at 0.083, 0.25, 0.5, 1, 3, 7, 10, and 24 h post-administration (3 rats per time point). Plasma and brain levels of (S)-MK-26 were measured by LC-MS by a standard validated protocol defined by the contractor, and the pharmacokinetic parameters were calculated from individual concentrations by WinNonLin7.0 (Phoenix64), a non-compartmental model.

[2] = test system: adult male Sprague Dawley rats; assay: FR5/chow feeding choice task; format: in vivo, rat
Method: Pharmacological agents: (S)-MK-26 was obtained from the Lubec Laboratory (University of Vienna, Austria) and dissolved in dimethyl sulfoxide (DMSO) (10%), Tween 80 (15%), and 0.9% saline (75%). The DMSO/Tween 80/saline mixture was administered as the vehicle control. The dose range was selected as 3.75–45.0 mg/kg based on its DAT affinity and pilot studies. It was administered 30 min before testing. TBZ (9,10-dimethoxy3-(2-methylpropyl)-1,3,4,6,7, 11b hexahydrobenzo[a]quinolizin2-one) was obtained from Tocris Bioscience (Ellisville, MO) and was dissolved in DMSO (20%) and 0.9% saline (80%) and was titrated with 1.0 N HCl until the drug was dissolved at a pH of 4.0–4.5. The DMSO/saline solution with equal amounts of HCl was administered as the vehicle control. The selected dose was 1.0mg/kg based on the previous research from our laboratory. It was administered 120 min prior to testing.
FR5/chow feeding choice task: A total of 8 adult male Sprague Dawley rats (Envigo Sprague Dawley, Indianapolis, IN, USA; weights 275–299 g upon arrival) were pair-housed in a colony maintained at 23 °C, with a 12 h light/dark cycle (lights on 07:00). Rats were food deprived to 85% of their free-feeding body weight with modest growth throughout the experiment and water was available ad libitum in their home cages. All the animal protocols were approved by the University of Connecticut Institutional Animal Care and Use Committee, and the experiments were completed according to National Institutes of Health guidelines.
Behavioral sessions were conducted in operant chambers (28 × 23 × 23 cm^3; Med Associates, Fairfax, VT, USA) with 30 min sessions 5 days/week. Rats were initially trained to lever press on magazine training for 3 days, followed by an FR1 schedule for 3 days (high-carbohydrate 45-mg pellets, Bio-Serv, Frenchtown, NJ, USA), and then moved to the FR5 schedule. After 5 weeks of training on the FR5 schedule, lab chow was introduced as the concurrently available choice food (Laboratory Diet, 5P00 Prolab RMH 3000, Purina Mills, St. Louis, MO, USA; typically 15–20 g). At the end of each session, rats were immediately removed from the chambers. The number of lever pressing was recorded and the amount of consumed chow was calculated by weighing the remaining food, including spillage. Rats were trained on the FR5/chow feeding choice task for 5 weeks, after which drug testing began.
To test the effects of (S)-MK-26 on FR5/Chow feeding choice task, trained rats were administered either with TBZ (1.0 mg/kg) or vehicle 120 min before testing, and (S)-MK-26 also with doses of 15.0, 30.0, 45.0 mg/kg or vehicle 30 min before testing, via intraperitoneal (IP) injections on drug testing days. A repeated-measures design was utilized where each rat received each drug treatment in a randomly varied order, once per week. The following five treatment combinations were given: TBZ vehicle + (S)-MK-26 vehicle; 1.0 mg/kg TBZ + (S)-MK-26 vehicle; 1.0 mg/kg TBZ + 15.0 mg/kg (S)-MK-26; 1.0 mg/kg TBZ + 30.0 mg/kg (S)-MK-26; 1.0 mg/kg TBZ + 45.0 mg/kg (S)-MK-26. Next, to see if the effects of lower doses, the following four treatment combinations were given in a repeated measure design: TBZ vehicle + (S)-MK-26 vehicle; 1.0 mg/kg TBZ + (S)-MK-26 vehicle; 1.0 mg/kg TBZ + 3.75 mg/kg (S)-MK-26; 1.0 mg/kg TBZ + 7.5 mg/kg (S)-MK-26.

[3] = test system: naive young (12 weeks) male rats; assay: Open field, spontaneous locomotor activity; format: in vivo, rat
Method: Animals were habituated to the experimental room twenty-four hours prior to the start of the experiment. The open field consisted of a black wooden board (1.20 m × 1.20 m) surrounded by white wooden walls (50 cm in height); light was adjusted to 150 lux. Each animal was placed in the middle of the open-field arena (animal experiments conducted under BMBWF-66.009/235/V/3b/2018 regulations) and behavior was recorded for 10 min. Data analysis was performed using the AnyMaze software (Stoelting Co., IL, USA). The test consisted of one habituation session on the first day and one test session on the following day. Each animal received (S)-MK-26 at 10, 20, 0 and 1 mg/kg of body weight with wash-out period of nine days between each treatment.

[4] = male, Sprague-Dawley, ip, brain
[5] = male, Sprague-Dawley, ip, plasma
[6] = 15.0, 30.0 and 45.0 mg/kg i.p. coadministered with 1.0 mg/kg TBZ

[O-][S@@+](Cc1cncs1)C(c1cccc(Cl)c1)c1cccc(Cl)c1 [(S)-MK-26, (S)-5-(((B(3-chlorophenyl)methyl)sulphinyl)methyl)thiazole]
detectable up to (time) ([1]; brain and plasma): 10 h
Tlast ([1]; brain): 10.0 h
time of maximum mean brain concentration ([1]; brain): 15 min
maximum mean brain concentration ([1]; brain, at 15 min): 634 ± 140 ng/g
Kp ([1]; male, Sprague-Dawley, brain and plasma, ip, read-out: mean brain to plasma concentration ratio): 1.12 ± 0.19
AUC(0-t) [1, 4]: 1960 ng·h/mL and 5.14 µM·h
Cmax [1, 4]: 634 ng/mL and 1.67 µM
Tmax [1, 4]: 15 min
concentration at 10 h [1, 4]: 19.2 nM
AUC(0-t) [1, 5]: 1710 ng·h/mL and 4.5 µM·h
Cmax [1, 5]: 624 ng/mL and 1.64 µM
Tmax [1, 5]: 30 min
concentration at 10 h [1, 5]: 15.7 nM
Tlast ([1]; plasma): 10.0 h
time to peak mean plasma concentration ([1]; plasma): ≤ 30 min
adverse effects during the pharmacokinetic study [1]: No adverse effects were observed
effect on TBZ-induced change in chow intake [2, 6]: significantly attenuated the effects of TBZ
effect on TBZ-induced change in lever pressing [2, 6]: significantly attenuated the effects of TBZ
potency in effort-based choice tests compared to other modafinil analogs ([2]; comparison with earlier studies): lower potency than (S,S)-CE-158
reversal of TBZ effects on lever pressing and chow intake ([2]; low-dose progression 3.75 and 7.5 mg/kg i.p. with 1.0 mg/kg TBZ): failed to reverse the effects of TBZ
effect on total distance travelled over 10 min ([3]; 1, 10, 20 mg/kg vs vehicle): no effect
activity (distance travelled) within the initial 5 min of the test session ([3]; highest dose (20 mg/kg), p = 0.0236): moderately increased activity
stereotypic or anxiogenic behavior ([3]; open field, 1, 10, 20 mg/kg): did not induce stereotypic or anxiogenic behavior
